Article PMC2765569 (Biochemistry, 2009)

What was measured:
[1] = molecular target: FTase (wild-type protein farnesyltransferase) (Rattus norvegicus, UniProt Q02293+Q04631); assay: Single-turnover; assay type: biochemical; conditions: 800 nM FTase, 200 nM FPP, 25 μM peptide, 5 μM MDCC-PBP, 34 units mL^−1 PPiase, 50 mM HEPPSO pH 7.8, 5 mM TCEP, 5 mM MgCl2, 25 °C; for Single turnover rate constant kSTO, X=S: dansyl-GCVa2S panel
FTase = FTase (Rattus norvegicus, UniProt Q02293+Q04631); assay: Radioactive assay of FTase-catalyzed farnesylation; assay type: biochemical; conditions: data not shown, farnesylated slowly
Sequence of FTase (Q02293 whole entry, one chain of several): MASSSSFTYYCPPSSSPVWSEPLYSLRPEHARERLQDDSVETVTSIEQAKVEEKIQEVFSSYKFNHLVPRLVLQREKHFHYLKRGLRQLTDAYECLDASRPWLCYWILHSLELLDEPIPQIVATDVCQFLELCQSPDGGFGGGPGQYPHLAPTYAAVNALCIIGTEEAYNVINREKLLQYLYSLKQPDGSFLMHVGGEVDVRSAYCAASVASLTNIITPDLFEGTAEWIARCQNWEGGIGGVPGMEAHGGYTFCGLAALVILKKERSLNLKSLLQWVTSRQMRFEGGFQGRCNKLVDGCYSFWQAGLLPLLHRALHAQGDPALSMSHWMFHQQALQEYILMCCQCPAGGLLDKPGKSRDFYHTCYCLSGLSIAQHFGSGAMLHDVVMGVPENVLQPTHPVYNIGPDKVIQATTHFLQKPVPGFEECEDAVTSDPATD

With dansyl-GCVGS as the substance, how does the “Single turnover rate constant kSTO, X=S” value [1] read?
Its value is 0.092 ± 0.004 s⁻¹.

For dansyl-GCVGM, which “Single turnover rate constant kSTO, X=M” value ([1]; dansyl-GCVa2M panel) is on record?
The value was 0.26 ± 0.01 s⁻¹.

Which “Single turnover rate constant kSTO, X=S” value [1] does the source give for dansyl-GCVLS here?
Its value is 3.8 ± 0.5 s⁻¹.

Which “apparent value for kcat/KM” value (FTase) does the source give for dansyl-GCVRS here?
The value was < 1000 M⁻¹ s⁻¹.
